# From patent US5874597A, “Certain aminosterol compounds and pharmaceutical compositions including these compounds” (priority 1995, dated 1999)
# Tested on: vitelline capillaries of chick embryo
# Test: chick embryo vitelline capillary regression assay
# Assay type: in vivo
# Settings: Table II
# Experimental: Using the chick embryo vitelline capillaries assay, compounds were tested for their ability to induce capillary regression. Each compound was applied in 0.1 ml of 15% Ficol 400 and PBS onto the embryo, and vascular regression was assessed after 60 minutes.
# The 3-day chick embryo consists of an embryonic disc from which numerous vessels emerge and return, forming a "figure 8"-shaped structure--the embryo in the center with vascular loops extending outward over both poles. […] Following a lag period of around 15 minutes, the constriction of continuity between capillary and secondary vessels, generally on the "venous" side, was observed. Continued pulsatile blood flow progressed, resulting in a "swelling" of the blind tube, followed by a pinching off of the remaining connection and formation of an enclosed vascular sac resembling a "blood island." This process progressed until only the largest vessels remained intact.
row,SMILES,"Chick embryo diss. assay, Minimum Effective Concentration [µg]"
1,CC(C)CCCC(C)[C@H]1CCC2C3CC[C@H]4C[C@@H](NCCCNCCCCN)CC[C@]4(C)C3CC[C@@]21C (stereo partly drawn),> 10
2,CC(CCC(=O)O)[C@H]1CCC2C3CC[C@H]4C[C@H](NCCCNCCCCN)CC[C@]4(C)C3CC[C@@]21C (stereo partly drawn),> 10
3,CC(CCC(=O)O)[C@H]1CCC2C3CC[C@H]4C[C@@H](NCCCNCCCCN)CC[C@]4(C)C3CC[C@@]21C (stereo partly drawn),0.001
4,CC(C)CCCC(C)[C@H]1CCC2C3C(CC[C@@]21C)[C@@]1(C)CC[C@@H](NCCCNCCCCN)C[C@@H]1C[C@H]3O (stereo partly drawn),> 10
5,CC(C)CCCC(C)[C@H]1CCC2C3C(CC[C@@]21C)[C@@]1(C)CC[C@H](NCCCNCCCCN)C[C@@H]1C[C@H]3O (stereo partly drawn),1 to 10
6,COC(=O)CCC(C)[C@H]1CCC2C3C(CC[C@@]21C)[C@@]1(C)CC[C@H](NCCCNCCCCNCCCN)C[C@@H]1C[C@H]3O (stereo partly drawn),10
7,CC(CCC(=O)O)[C@H]1CCC2C3C(CC[C@@]21C)[C@@]1(C)CC[C@H](NCCCNCCCCNCCCN)C[C@@H]1C[C@H]3O (stereo partly drawn),1
8,COC(=O)CCC(C)[C@H]1CCC2C3C(CC[C@@]21C)[C@@]1(C)CC[C@H](NCCN)C[C@H]1C[C@H]3O (stereo partly drawn),> 1
9,COC(=O)CCC(C)[C@H]1CCC2C3C(CC[C@@]21C)[C@@]1(C)CC[C@@H](NCCN)C[C@H]1C[C@H]3O (stereo partly drawn),0.01
10,CC(CCC(=O)O)[C@H]1CCC2C3C(CC[C@@]21C)[C@@]1(C)CC[C@H](NCCCNCCCCN)C[C@@H]1C[C@H]3O (stereo partly drawn),> 10
11,CC(C)CCCC(C)[C@H]1CCC2C3CC[C@H]4C[C@H](NCCCN5CCCCN=C5N)CC[C@]4(C)C3CC[C@@]21C (stereo partly drawn),> 10
12,COC(=O)CCC(C)[C@H]1CCC2C3CC[C@H]4C[C@@H](NCCCNCCCCNCCCN)CC[C@]4(C)C3CC[C@@]21C (stereo partly drawn),> 1
13,COC(=O)CCC(C)[C@H]1CCC2C3C[C@@H](O)[C@H]4C[C@@H](NCCCNCCCCNCCCN)CC[C@]4(C)C3CC[C@@]21C (stereo partly drawn),1
14,COC(=O)CCC(C)[C@H]1CCC2C3C[C@@H](O)[C@H]4C[C@H](NCCN)CC[C@]4(C)C3CC[C@@]21C (stereo partly drawn),> 1
15,COC(=O)CCC(C)[C@H]1CCC2C3C[C@@H](O)[C@H]4C[C@@H](NCCN)CC[C@]4(C)C3CC[C@@]21C (stereo partly drawn),> 1
16,CC(CCC(=O)O)[C@H]1CCC2C3C[C@@H](O)[C@H]4C[C@@H](NCCN)CC[C@]4(C)C3CC[C@@]21C (stereo partly drawn),1
17,COC(=O)CCC(C)[C@H]1CCC2C3CC[C@@H]4C[C@H](NCCCNCCCCNCCCN)CC[C@]4(C)C3CC[C@@]21C (stereo partly drawn),> 1
18,COC(=O)CCC(C)[C@H]1CCC2C3C(CC[C@@]21C)[C@@]1(C)CC[C@H](NCCCNCCCCNCCCN)C[C@H]1C[C@H]3O (stereo partly drawn),> 1
19,CC(CCC(=O)O)[C@H]1CCC2C3C(CC[C@@]21C)[C@@]1(C)CC[C@@H](NCCCNCCCCNCCCN)C[C@H]1C[C@H]3O (stereo partly drawn),1
20,CC(CCC(=O)O)[C@H]1CCC2C3C(CC[C@@]21C)[C@@]1(C)CC[C@H](NCCCNCCCCNCCCN)C[C@H]1C[C@H]3O (stereo partly drawn),> 1
21,CC(CCC(=O)O)[C@H]1CCC2C3C(CC[C@@]21C)[C@@]1(C)CC[C@@H](NCCN)C[C@H]1C[C@H]3O (stereo partly drawn),> 1
22,CC(CCC(=O)O)[C@H]1CCC2C3C(CC[C@@]21C)[C@@]1(C)CC[C@H](NCCN)C[C@H]1C[C@H]3O (stereo partly drawn),> 1
23,COC(=O)CCC(C)[C@H]1CCC2C3CC[C@@H]4C[C@H](NCCN)CC[C@]4(C)C3C[C@H](O)[C@@]21C (stereo partly drawn),> 1
24,CC(COS(=O)(=O)O)C(=O)CCC(C)[C@H]1CCC2C3C(CC[C@@]21C)[C@@]1(C)CC[C@H](NCCCNCCCCN)C[C@@H]1C[C@H]3O (stereo partly drawn),> 10
